From ChEMBL document CHEMBL1201862, “PubChem BioAssay data set” (2004)
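Protocol summary: plate cells (96-well), add compound at 5 concentrations, incubate 48 h, interpolate endpoints linearly. The concentration for 50% growth inhibition is given as GI50.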 The source made the active and inactive calls. No stated cut-off is given here; in the data, active = GI50 up to about 1.1 µM and inactive = higher.

Assays:
Assay in all cases: NCI tumour cell line growth inhibition, 48 h
MCF7 = test system: MCF7
MDA-MB-231 = test system: MDA-MB-231
SK-MEL-28 = test system: SK-MEL-28
SNB-19 = test system: SNB-19
UACC-62 = test system: UACC-62
HCC 2998 = test system: HCC 2998
KM12 = test system: KM12
T47D = test system: T47D
BT-549 = test system: BT-549
UACC-257 = test system: UACC-257
HCT-15 = test system: HCT-15
CCRF-CEM = test system: CCRF-CEM
HCT-116 = test system: HCT-116
UO-31 = test system: UO-31
OVCAR-3 = test system: OVCAR-3
786-0 = test system: 786-0
SF-539 = test system: SF-539
NCI-H522 = test system: NCI-H522
SR = test system: SR

Structure (SMILES)	GI50 (MCF7)	GI50 (MDA-MB-231)	GI50 (SK-MEL-28)	GI50 (SNB-19)	GI50 (UACC-62)	GI50 (HCC 2998)	GI50 (KM12)	GI50 (T47D)	GI50 (BT-549)	GI50 (UACC-257)	GI50 (HCT-15)	GI50 (CCRF-CEM)	GI50 (HCT-116)	GI50 (UO-31)	GI50 (OVCAR-3)	GI50 (786-0)	GI50 (SF-539)	GI50 (NCI-H522)	GI50 (SR)
CC1OC23CCCCC2C(C#N)(C#N)C1(C#N)C(=N)O3 (stereo not given)	20.7 µM (inactive)	15.7 µM (inactive)	21.7 µM (inactive)	22.8 µM (inactive)	> 10 µM (inactive)	25.5 µM (inactive)	24.3 µM (inactive)	18.7 µM (inactive)	17.7 µM (inactive)	18 µM (inactive)	15.3 µM	5.94 µM (inactive)	16.6 µM (inactive)	> 10 µM (inactive)	17.7 µM (inactive)	12.8 µM (inactive)	21.8 µM (inactive)		
CCCCCCCCCCCCCCCCOCC(CC(F)(F)P(=O)(O)O)OC(C)=O (stereo not given)	> 50 µM (inactive)	> 50 µM (inactive)	> 50 µM (inactive)	> 50 µM (inactive)	> 50 µM (inactive)	> 50 µM (inactive)	> 50 µM (inactive)		> 50 µM (inactive)	> 50 µM (inactive)	> 50 µM		> 50 µM (inactive)	> 50 µM (inactive)	> 50 µM (inactive)	> 50 µM (inactive)		> 50 µM (inactive)	
O=C(N/N=C1\C(=O)Nc2c(Cl)cc(Cl)cc21)C(=O)Nc1cccc(C(F)(F)F)c1	> 100 µM (inactive)	94.4 µM (inactive)	> 100 µM (inactive)	> 100 µM (inactive)	> 100 µM (inactive)	> 100 µM (inactive)	> 100 µM (inactive)		> 100 µM (inactive)	> 100 µM (inactive)	> 100 µM	> 100 µM (inactive)	> 100 µM (inactive)	> 100 µM (inactive)	> 100 µM (inactive)	> 100 µM (inactive)	> 100 µM (inactive)		34.4 µM (inactive)
CCOC1OC(CO)C(O)CC1n1ccc(=O)[nH]c1=O (stereo not given)	> 100 µM (inactive)	> 100 µM (inactive)	> 100 µM (inactive)	> 100 µM (inactive)	> 100 µM (inactive)	> 100 µM (inactive)	> 100 µM (inactive)	> 100 µM (inactive)	> 100 µM (inactive)	> 100 µM (inactive)	> 100 µM		> 100 µM (inactive)	> 100 µM (inactive)	> 100 µM (inactive)	> 100 µM (inactive)	> 100 µM (inactive)	30.3 µM (inactive)	
Cn1c(N)nc(-c2ccc(Cl)cc2)c1SSc1c(-c2ccc(Cl)cc2)nc(N)n1C		1.4 µM (inactive)	2.02 µM (inactive)	14.7 µM (inactive)	2.3 µM (inactive)	7.82 µM (inactive)	1.85 µM (inactive)	2.28 µM (inactive)	2.58 µM (inactive)	2.04 µM (inactive)	1.77 µM	2.44 µM (inactive)	4.23 µM (inactive)	1.85 µM (inactive)	1.82 µM (inactive)	1.92 µM (inactive)	1.71 µM (inactive)	1.66 µM (inactive)	
CCOP(=O)(OCC)OC1CC(n2cc(C)c(=O)n(C)c2=O)OC1CO[Si](C)(C)C(C)(C)C (stereo not given)	73.1 µM (inactive)		> 100 µM (inactive)	> 100 µM (inactive)	> 100 µM (inactive)	62.4 µM (inactive)	75.2 µM (inactive)	17.8 µM (inactive)	55.1 µM (inactive)	> 100 µM (inactive)	> 100 µM	61.2 µM (inactive)	40.8 µM (inactive)	2.9 µM (inactive)	> 100 µM (inactive)	> 100 µM (inactive)	> 100 µM (inactive)	32.1 µM (inactive)	37.7 µM (inactive)
CO[C@H]1C[C@H](O[C@H]2CC[C@]3(C=O)[C@H]4CC[C@]5(C)[C@@H](C6=CC(=O)OC6)CC[C@]5(O)[C@@H]4CC[C@]3(O)C2)O[C@H](C)[C@H]1O[C@@H]1O[C@H](CO)[C@@H](O)[C@H](O)[C@H]1O		0.000173 µM (active)	6.43e-05 µM (active)	8.93e-05 µM (active)	6.17e-05 µM (active)	> 0.01 µM (active)	9.1e-05 µM (active)	5.53e-05 µM (active)	1.22e-05 µM (active)	8.22e-05 µM (active)	3.94e-05 µM	> 0.01 µM (active)	9.73e-06 µM (active)	3.49e-05 µM (active)	7.67e-06 µM (active)	> 0.01 µM (active)	2.03e-05 µM (active)	6.87e-06 µM (active)	> 0.01 µM (active)
[N-]=[N+]=NC1=NNC2(C(=O)N1)c1ccccc1-c1ccccc12	72.1 µM (inactive)	> 100 µM (inactive)	> 100 µM (inactive)	> 100 µM (inactive)	> 100 µM (inactive)	> 100 µM (inactive)			> 100 µM (inactive)	> 100 µM (inactive)	> 100 µM	> 100 µM (inactive)	14.2 µM (inactive)	> 100 µM (inactive)	> 100 µM (inactive)	> 100 µM (inactive)	> 100 µM (inactive)	> 100 µM (inactive)	
